Measured values: patent US8735388B2, “Heterocyclic compounds with affinity to muscarinic receptors” (Abbvie B. V. A., priority 2007, dated 2014)

How the values were obtained:
[1] = target: T1, Muscarine M1 (GPCR-A-MA-ACH M1) (Homo sapiens, UniProt P11229); test: Muscarine M1 cell-based functional assay (CHO cells, Ca2+ - FLIPR Fluorimetry); settings: human M1, CHO cells; agonist mode, reference agonist acetylcholine; read-out: Cell funct. Musc. M1 Agonism pEC50 (converted)
T1 construct: expressed in transfected cells; host or cells: CHO cells
T1 sequence (P11229 1-460): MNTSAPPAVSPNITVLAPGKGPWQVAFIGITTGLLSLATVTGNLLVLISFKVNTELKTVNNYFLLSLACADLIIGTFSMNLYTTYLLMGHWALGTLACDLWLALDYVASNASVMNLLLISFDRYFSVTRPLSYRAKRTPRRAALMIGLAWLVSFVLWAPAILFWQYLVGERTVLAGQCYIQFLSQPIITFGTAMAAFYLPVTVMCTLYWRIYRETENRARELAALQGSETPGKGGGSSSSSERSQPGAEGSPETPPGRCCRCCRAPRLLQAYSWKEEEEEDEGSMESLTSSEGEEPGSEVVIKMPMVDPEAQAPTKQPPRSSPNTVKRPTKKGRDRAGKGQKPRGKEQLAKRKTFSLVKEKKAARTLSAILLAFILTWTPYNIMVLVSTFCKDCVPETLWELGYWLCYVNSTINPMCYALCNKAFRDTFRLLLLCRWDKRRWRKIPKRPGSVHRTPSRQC

[2] = Stability in human liver homogenate (metabolic stability in vitro); format: in vitro ADME; settings: read-out: t ½
From the text: DÖRJE, F., WESS, J., LAMBRECHT, G., TACKE, R., […], E. and BRANN, M. R. (1991) Antagonist binding profiles of five cloned human muscarinic receptor subtypes. J. Pharmacol. Exp. Ther., 256: 727-733. • […], M. H. (1990) Rat hippocampal muscarinic autoreceptors are similar to the M2 (cardiac) subtype: comparison with hippocampal M1, atrial M2 and ileal M3 receptors. Brit. J. Pharmacol., 99: 753-761. • PERALTA, E. G., ASHKENAZI, A., WINSLOW, J. W., SMITH, D. H., […], J. and CAPON, D. J. (1987) Distinct primary structures, ligand-binding properties and tissue-specific expression of four human muscarinic acetylcholine receptors. EMBO. J., 6: 3923-3929. Determination of Metabolic Stability (In Vitro)
Method used according to procedures described by DI, L. et al., Journal of Biomolecular Screening, Vol. 8, No. 4, 453-462 (2003).

[3] = target: T2, Muscarine M3 (GPCR-A-MA-ACH M3) (Cavia porcellus, UniProt H0W1Z3); test: Muscarine M3 functional assay, isolated organ (ileum), agonist and antagonist mode; parameters: species or system Guinea Pig; settings: for EC50: read-out: Cell funct. Musc. M3 Agonism pEC50 (converted)
T2 construct: from tissue; host or cells: guinea pig ileum
T2 sequence (H0W1Z3 1-590): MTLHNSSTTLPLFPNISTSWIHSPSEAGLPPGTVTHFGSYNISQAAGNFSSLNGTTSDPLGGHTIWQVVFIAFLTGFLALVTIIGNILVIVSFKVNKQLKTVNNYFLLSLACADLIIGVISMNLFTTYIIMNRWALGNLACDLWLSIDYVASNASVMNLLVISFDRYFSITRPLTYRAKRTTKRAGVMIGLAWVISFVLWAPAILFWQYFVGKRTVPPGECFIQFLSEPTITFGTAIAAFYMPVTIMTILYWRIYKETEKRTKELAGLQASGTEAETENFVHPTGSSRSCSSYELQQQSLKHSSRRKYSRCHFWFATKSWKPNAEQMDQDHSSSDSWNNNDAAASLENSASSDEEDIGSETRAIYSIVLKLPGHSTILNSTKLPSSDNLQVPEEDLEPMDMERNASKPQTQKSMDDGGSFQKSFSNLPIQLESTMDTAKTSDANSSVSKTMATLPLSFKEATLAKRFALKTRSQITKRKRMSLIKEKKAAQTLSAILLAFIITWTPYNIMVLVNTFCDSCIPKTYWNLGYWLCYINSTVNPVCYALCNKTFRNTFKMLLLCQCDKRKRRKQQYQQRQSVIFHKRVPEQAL

[4] = target: T3, Muscarine M2 (GPCR-A-MA-ACH M2) (Homo sapiens, UniProt P08172); test: Muscarine M2 receptor binding; settings: human M2, CHO cells; receptor binding
T3 construct: expressed in transfected cells; host or cells: CHO cells
T3 sequence (P08172 1-466): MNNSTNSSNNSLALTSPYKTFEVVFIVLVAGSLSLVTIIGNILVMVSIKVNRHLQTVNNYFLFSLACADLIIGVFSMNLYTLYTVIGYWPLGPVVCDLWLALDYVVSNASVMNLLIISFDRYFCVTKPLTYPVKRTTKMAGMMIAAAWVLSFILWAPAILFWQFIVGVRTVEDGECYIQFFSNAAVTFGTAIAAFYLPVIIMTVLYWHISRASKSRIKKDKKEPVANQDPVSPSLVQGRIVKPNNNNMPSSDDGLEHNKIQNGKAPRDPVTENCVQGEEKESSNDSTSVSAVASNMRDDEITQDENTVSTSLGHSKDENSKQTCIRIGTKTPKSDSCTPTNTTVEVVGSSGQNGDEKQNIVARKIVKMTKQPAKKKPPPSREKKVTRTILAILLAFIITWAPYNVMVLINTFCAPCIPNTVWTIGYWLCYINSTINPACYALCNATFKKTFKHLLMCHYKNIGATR

[5] = target: T4, Muscarine M4 (GPCR-A-MA-ACH M4) (Homo sapiens, UniProt P08173); test: Muscarine M4 cell-based functional assay (CHO cells, Ca2+ - Aequorin luminescence); settings: human M4, CHO cells; agonist mode, reference agonist oxotremorine; read-out: Cell funct. Musc. M4 Agonism pEC50 (converted)
T4 construct: expressed in transfected cells; host or cells: CHO cells
T4 sequence (P08173 1-479): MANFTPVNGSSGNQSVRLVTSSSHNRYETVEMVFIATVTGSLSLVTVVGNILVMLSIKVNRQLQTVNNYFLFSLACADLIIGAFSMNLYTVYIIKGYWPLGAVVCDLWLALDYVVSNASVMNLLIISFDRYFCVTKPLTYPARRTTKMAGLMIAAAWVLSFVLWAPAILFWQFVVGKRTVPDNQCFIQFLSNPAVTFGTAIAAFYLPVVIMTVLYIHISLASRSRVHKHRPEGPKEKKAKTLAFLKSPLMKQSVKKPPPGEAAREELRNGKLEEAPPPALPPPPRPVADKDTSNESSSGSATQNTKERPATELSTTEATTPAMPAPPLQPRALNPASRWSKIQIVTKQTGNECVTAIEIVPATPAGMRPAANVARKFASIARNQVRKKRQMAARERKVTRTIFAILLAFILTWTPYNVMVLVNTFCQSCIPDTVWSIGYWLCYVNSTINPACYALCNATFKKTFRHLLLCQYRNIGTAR
How it was run: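 CHO cells expressing human M4 were exposed to compound, with Ca2+ response read by aequorin luminescence. Compounds were first tested at 1 μM, then at 10-fold lower concentrations if active; stimulation or inhibition was relative to the reference agonist. EC50/IC50 came from Hill-equation fits.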

| SMILES | EC50 [1] [µM] | half-life [2] [h] | Kb [3] [µM] | EC50 [3] [µM] | Ki [4] [µM] | EC50 [5] [µM] |
| --- | --- | --- | --- | --- | --- | --- |
| C=CCCCSc1c[nH]nc1C1=CCCN(C)C1 [Compound 22L] | 0.01 | 0.933 | > 1 | > 1 | 2 | 0.0631 |
| CCOCCSc1c[nH]nc1C1=CCCN(C)C1 [Compound 22O, 3-[4-(2-Ethoxy-ethylsulfanyl)-1H-pyrazol-3-yl]-1,2,5,6-tetrahydro-1-methylpyridine] | 0.0316 | 4.08 | > 1 | > 1 | 10 | 0.631 |
| CN1CCC=C(c2n[nH]cc2SCCC=C(F)F)C1 [Compound 22J, 3-[4-(4,4-Difluoro-but-3enylsulfanyl)-1H-pyrazol-3-yl]-1,2,5,6-tetrahydro-1-methylpyridine] | 0.0398 | 2.15 | > 1 | > 1 | 3.16 | 0.251 |

Second part, the compound after the results:

| EC50 [1] [µM] | half-life [2] [h] | Kb [3] [µM] | EC50 [3] [µM] | Ki [4] [µM] | EC50 [5] [µM] | SMILES |
| --- | --- | --- | --- | --- | --- | --- |
| 0.0398 | 3.83 | > 1 | > 1 | 5.01 | 0.794 | C=CCCCOc1c[nH]nc1C1=CCCN(C)C1 [Compound 33F, 3-(4-Pent-4-enyloxy-1H-pyrazol-3-yl)-1,2,5,6-tetrahydro-1-methylpyridine] |
| 0.0251 | 0.933 | > 1 | > 1 | 3.98 | 0.631 | CCCCCOc1c[nH]nc1C1=CCCN(C)C1 [Compound 33G, 3-(4-Pentyloxy-1H-pyrazol-3-yl)-1,2,5,6-tetrahydro-1-methylpyridine] |
